# Results taken from PMC9572513, “Novel Unsymmetric 3,5-Bis(benzylidene)-4-piperidones That Display Tumor-Selective Toxicity” (Molecules, 2022).
# Counter-ions that a name gives are not always drawn. Like-named read-outs stand apart in the source and are kept apart here.
# Experiments:
# HL-60 cells = test: Differential DNA staining (DNS) cytotoxicity assay, HL-60 cells; assay type: cell-based; conditions: Homo sapiens
# Method: (§1) The method used for generating the data of human acute lymphocytic leukemia (CEM) and human acute promyelocytic leukemia (HL-60) cells in Table 4 has been described previously. In brief, the cells were cultured in media supplemented with 10% FBS and antibiotics. […] The CC50 values of the compounds listed in Table 4 were obtained by linear interpolation equations [28, 29].
# [1] = system: HSC-2 squamous cell carcinoma cells; test: MTT cytotoxicity against HSC-2 squamous cell carcinoma; assay type: cell-based, human; conditions: for CC50: Homo sapiens, HSC-2, 48 h, MTT, read-out: HSC-2 CC50; for HSC-2 SI: average CC50 HGF/HPLF/HPC divided by CC50 HSC-2
# Method: (§2) The method for evaluating 2a–f and 3a–e against human oral squamous cell carcinoma (OSCC) cell lines (Ca9-22, HSC-2, HSC-3, HSC-4) and human non-malignant oral cells [human gingival fibroblast (HGF), human periodontal ligament fibroblast (HPLF), and human pulp cell (HPC)] have been reported previously, except the length of time of this bioassay was extended from 24 h to 48 h. In brief, different quantities of the compounds were incubated with the cells in Dulbecco’s modified eagle medium (DMEM), which was supplemented with 10% FBS and antibiotics. The cell viability was determined by the 3-(4,5-dimethylthiazol-2-yl)-2,5-diphenyl-2H-tetrazolium bromide (MTT) method as summarized previously (Figure 4).
# [2] = system: HSC-4 squamous cell carcinoma cells; test: MTT cytotoxicity against HSC-4 squamous cell carcinoma; assay type: cell-based, human; conditions: for CC50: Homo sapiens, HSC-4, 48 h, MTT, read-out: HSC-4 CC50; for HSC-4 SI: average CC50 HGF/HPLF/HPC divided by CC50 HSC-4
# Method: as §2
# [3] = MTT cytotoxicity against human periodontal ligament fibroblast (HPLF); assay type: cell-based; conditions: human, human periodontal ligament fibroblasts (HPLF), non-malignant oral cells
# Method: as §2
# [4] = system: Ca9-22, HSC-2, HSC-3, and HSC-4 squamous cell carcinoma cell lines; test: Average over Ca9-22, HSC-2, HSC-3 and HSC-4 OSCC cell lines; assay type: cell-based, human; conditions: for CC50: average of four OSCC cell lines, read-out: Average CC50; for Average SI: average of SI for four OSCC cell lines; for PSE (potency-selectivity expression): reciprocal of average CC50 (OSCC) x average SI x 100
# Method: as §2
# [5] = MTT cytotoxicity against human pulp cell (HPC); assay type: cell-based; conditions: human, human pulp cells (HPC), non-malignant oral cells
# Method: as §2
# [6] = system: HSC-3 squamous cell carcinoma cells; test: MTT cytotoxicity against HSC-3 squamous cell carcinoma; assay type: cell-based, human; conditions: for CC50: Homo sapiens, HSC-3, 48 h, MTT, read-out: HSC-3 CC50; for HSC-3 SI: average CC50 HGF/HPLF/HPC divided by CC50 HSC-3
# Method: as §2
# [7] = system: CRL1790 non-malignant colon cells; test: Cytotoxicity against CRL1790 non-malignant colon cells; assay type: cell-based; conditions: Homo sapiens, 48 h
# Method: (§3) The culture medium was supplemented with 10% heat-inactivated fetal bovine serum (FBS) and 1% penicillin–streptomycin antibiotics. The time of the bioassays was 48 h. The determinations were undertaken in triplicate on three different occasions.
# [8] = Average over HGF, HPLF and HPC non-malignant oral cells; assay type: cell-based, human; conditions: human, HPLF and HPC non-malignant oral cells (average), average of HGF
# Method: as §2
# CEM cells [9] = test: Differential DNA staining (DNS) cytotoxicity assay, CEM cells; assay type: cell-based; conditions: Homo sapiens, CCRF-CEM
# Method: as §1
# [10] = system: HCT116 colon cancer cells; test: Cytotoxicity against HCT116 colon cancer cells; assay type: cell-based, human; conditions: for IC50: 48 h; for HCT116 SI (selectivity index): IC50 CRL1790 / IC50 HCT116
# Method: as §3
# [11] = system: Ca9-22 squamous cell carcinoma cells; test: MTT cytotoxicity against Ca9-22 squamous cell carcinoma; assay type: cell-based, human; conditions: for CC50: Homo sapiens, Ca9-22, 48 h, MTT, read-out: Ca9-22 CC50; for Ca9-22 SI: average CC50 HGF/HPLF/HPC divided by CC50 Ca9-22
# Method: as §2
# [12] = MTT cytotoxicity against human gingival fibroblast (HGF); assay type: cell-based; conditions: human, human gingival fibroblasts (HGF), non-malignant oral cells
# Method: as §2
# [13] = system: HCT116 and HT29 colon cancer cells; test: Average over HCT116 and HT29 colon cancer cells; assay type: cell-based, human; conditions: for IC50: Homo sapiens, average of HCT116 and HT29, unit printed only for the single cell-line columns; for Average SI: average of SI for HCT116 and HT29; for PSE (potency-selectivity expression): reciprocal of average IC50 x average SI x 100, colon cells
# Method: as §3
# HT29 colon cancer cells = test: Cytotoxicity against HT29 colon cancer cells; assay type: cell-based, human; conditions: for IC50: 48 h; for HT29 SI (selectivity index): IC50 CRL1790 / IC50 HT29
# Method: as §3
# CEM cells [14] = test: Annexin V-FITC apoptosis assay in CEM cells; assay type: cell-based, human; conditions: CC50 and twice the CC50 concentrations, 24 h
# Method: In order to discover if representative compounds induce apoptosis, the annexin V-FITC assay was used. In brief, CEM cells were treated with various compounds for 24 h. The cells were collected and stained with propidium iodide and annexin V-FITC.
# CEM cells [15] = test: ROS production in CEM cells (carboxy-H2DCFDA, flow cytometry); assay type: cell-based, human; conditions: CC50 and twice the CC50 concentrations
# Method: (§4) Apoptosis induction in Ca9-22 cells was evaluated by cell cycle analysis and Western blot analysis as described previously (Figure 5). Briefly, for the cell cycle analysis, cells were treated for 24 h with the test samples. Cells were then fixed, digested with RNase A, stained with propidium iodide, filtered through Falcon® cell trainers (Corning Inc., Corning, NY, USA), and then subjected to cell sorting. For the Western blot, cell lysates (equivalent to 5 µg protein) were applied to SDS-polyacrylamide gel electrophoresis. A literature method was used to determine whether representative compounds led to increases in the production of ROS [29]. In brief, CEM cells were treated with the compounds overnight, then with 6-carboxy-2′,7′-dichlorodihydrofluorescein diacetate (carboxy-H2DCFDA) and the samples were processed using flow cytometry.
# Ca9-22 cells = test: Western blot for caspase 3 activation in Ca9-22 cells; assay type: cell-based, human; conditions: 3 μM, 24 h
# Method: as §4
# CEM cells [16] = test: Mitochondrial membrane potential in CEM cells (JC-1, flow cytometry); assay type: cell-based, human; conditions: 7 h
# Method: The effect on the mitochondrial membrane potential in CEM cells was undertaken using a published method. In brief, the cells were incubated with different compounds for 7 h. The cells were then stained with the JC-1 dye, and the samples were examined by flow cytometry. The results are portrayed in Figure 6C.
# [17] = HL-60, 24 h, read-out: CC50 HL-60 Cells 24 h
# [18] = HL-60, 48 h, read-out: CC50 HL-60 Cells 48 h
# [19] = 24 h, read-out: CC50 CEM Cells 24 h
# [20] = 48 h, read-out: CC50 CEM Cells 48 h
Compound,CC50 (HL-60 cells; [17]) [µM],CC50 (HL-60 cells; [18]) [µM],CC50 [1] [µM],HSC-2 SI [1],CC50 [2] [µM],HSC-4 SI [2],CC50 at 48 h [3] [µM],CC50 ([4]; Homo sapiens) [µM],CC50 at 48 h [5] [µM],CC50 [6] [µM],HSC-3 SI [6],IC50 [7] [µM],CC50 at 48 h [8] [µM],CC50 (CEM cells [9]; [19]) [µM],CC50 (CEM cells [9]; [20]) [µM],CC50 [11] [µM],Ca9-22 SI [11],CC50 at 48 h [12] [µM],IC50 [13] [µM],Average SI [13],also measured
"COc1ccc(/C=C2\CNC/C(=C\c3ccc(O)c(CN4CCCC4)c3)C2=O)cc1OC [Compound 2c, 3-[3-(1-Pyrrolidinylmethyl)-4-hydroxybenzylidene]-5-(3,4-dimethoxybenzylidene)-4-piperidone dihydrochloride]",> 10,> 10,14,3.83,14.1,3.80,48.9,12,43.3,11.7,4.58,26.4 ± 0.28,53.6,> 10,7.92 ± 0.98,8.2,6.54,68.6,2.51,12.2,"Average SI [4]: 4.69; IC50 ([10]; Homo sapiens, HCT-116, 48 h): 3.44 ± 0.42 µM; HCT116 SI (selectivity index) [10]: 7.67; PSE (potency-selectivity expression) [13]: 486; IC50 (HT29 colon cancer cells; Homo sapiens, HT-29, 48 h): 1.57 ± 0.54 µM; HT29 SI (selectivity index) (HT29 colon cancer cells): 16.8"
"COc1ccc(/C=C2\CNC/C(=C\c3ccc(O)c(CN4CCN(C)CC4)c3)C2=O)cc1OC [Compound 2f, 3-[3-(4-Methyl-1-piperazinylmethyl)-4-hydroxybenzylidene]-5-(3,4-dimethoxybenzylidene)-4-piperidone trihydrochloride]",3.75 ± 1.07,2.73 ± 0.57,2.8,6.11,2.73,6.26,12,2.49,6.1,2.47,6.92,12.7 ± 0.31,17.1,8.91 ± 1.32,2.89 ± 0.2,1.94,8.81,33.1,0.72,17.7,"Average SI [4]: 7.03; IC50 [10]: 0.68 ± 0.31 µM; IC50 ([10]; Homo sapiens, HCT-116, 48 h): < 1 µM; HCT116 SI (selectivity index) [10]: 18.7; PSE (potency-selectivity expression) [13]: 2458; IC50 (HT29 colon cancer cells): 0.76 ± 0.3 µM; IC50 (HT29 colon cancer cells; Homo sapiens, HT-29, 48 h): < 1 µM; HT29 SI (selectivity index) (HT29 colon cancer cells): 16.7"
CN1CCN(Cc2cc(/C=C3\CNC/C(=C\c4ccccc4)C3=O)ccc2O)CC1 [Compound 3a],8.27 ± 0.4,1.67 ± 0.54,0.67,8.70,0.71,8.21,4.7,< 1,2.6,0.49,11.9,21.7 ± 0.25,5.83,3.06 ± 0.08,3.32 ± 0.3,0.43,13.6,10.2,0.37,60.1,"apoptotic cells (CEM cells [14]): approximately 30%; CC50 [4]: 0.58 µM; PSE (potency-selectivity expression) [4]: > 1000; ROS generation (CEM cells [15]): generate ROS; caspase 3 activation (cleavage of PARP and procaspase) (Ca9-22 cells): induced; depolarization of the mitochondrial membrane potential (CEM cells [16]): induced; PSE (potency-selectivity expression) [13]: 16,243"
CN1CCN(Cc2cc(/C=C3\CNC/C(=C\c4ccc(F)cc4)C3=O)ccc2O)CC1 [Compound 3b],5.9 ± 0.76,2.65 ± 0.43,0.91,11.1,1.14,8.86,7.4,< 1,4.3,0.95,10.6,12.6 ± 0.24,10.1,3.15 ± 1.29,0.4 ± 0.03,0.55,18.4,18.5,0.27,46.8,"CC50 [4]: 0.89 µM; PSE (potency-selectivity expression) [4]: > 1000; HCT116 SI (selectivity index) [10]: 45.0; PSE (potency-selectivity expression) [13]: 17,333; HT29 SI (selectivity index) (HT29 colon cancer cells): 48.5"
